We go through two compounds from publication PMC12091851, “Replacing a Cereblon Ligand by a DDB1 and CUL4 Associated Factor 11 (DCAF11) Recruiter Converts a Selective Histone Deacetylase 6 PROTAC into a Pan‐Degrader” (Chemmedchem, 2025).

Assay [1] concerns the target T1, HDAC1 (Homo sapiens, UniProt Q13547). Nature of the assay: HDAC enzyme inhibition assay. It counts as biochemical. Also noted: purchased BPS Bioscience 50051. As for the experimental part: Bio-Rad) to Immobilon-FL PVDF membranes (Catalog# IPFL00005, Mill ipore Merck, Burlington, MA, USA) at 1.0 A for 30 min and treated with 5% milk-powder solution for 1 h at room temperature […]
Signaling Technology) antibody solutions in 1:1000 –1:8000 dilutions at 4 °C overnight. […]
Significance testing was performed with a one -way analysis of variance (ANOVA). Dunnett’s post -hoc test was employed to obtain significance levels of each mean compared to a reference mean value.
2.7. HDAC Enzyme Inhibition Assay […]
[4] For test compounds and controls, serial dilutions of the respective DMSO stock solution in DMSO were prepared, and 1.0 μL /well of this serial dilution were transferred […]
into OptiPlate-96 black microplates (PerkinElmer, Waltham, […], USA). A volume of 4 µL/well assay […]
BSA) was added. In the case of HDAC1, 2, and 6, a volume of 35 μL/well of the fluorogenic substrate […]
The total assay volume of 50 μL (max. 2 % DMSO) was incubated at 37 °C for 90 min. Subsequently, 50 μL /well of trypsin (0.4 mg/mL) in trypsin buffer (50 mM Tris−HCl, pH 8.0, 100 mM NaCl) was added, followed by additional 30 min of incubation at […]
OPTIMA microplate reader (BMG labtech, Ortenburg, Germany). The half maximal inhibitory concentration (IC50) was determined by plotting dose response curves and nonlinear regression with GraphPad Prism (GraphPad Software).
2.8. MTT Cell Viability Assay […]

The target of assay [2] is T1, HDAC1. The assay is described as follows: Immunoblot HDAC1 degradation in MM.1S cell lysates. It counts as cell-based. On the set-up: endogenous in cells; host or cells: MM.1S. The note with it: MM1.S, MM.1S cells, 24 h, read-out: maximal degradation (Dmax) HDAC1. The protocol: Figure 6 Examination of HDAC isoform degradation. MM.1S cells were treated with the indicated compounds (10 μM) or vehicle (DMSO) for 24 h. HDAC1, 2, 4, and 6 levels were analyzed by immunoblotting. (A) Representative images from a total of n=3 biological replicates.
2.5. Aqueous Stability Assay
For stability testing in aqueous solution, a 10-fold concentrated DMSO solution of the respective compounds was diluted in DPBS to generate a 10 µM concentration (final DMSO content of 10%).
Samples of the aqueous solutions were taken after 0, 24, 48, and 72 h at room temperature and the amounts of the parental compound and potential fragments were monitored by HPLC gradient A (see 3.1 General Information). […]
Afterwards, proteins were transferred with the Trans -Blot Turbo Transfer System (Catalog# 1704150, Bio-Rad) to Immobilon-FL PVDF membranes (Catalog# IPFL00005, Mill ipore Merck, Burlington, MA, USA) at 1.0 A for 30 min and treated with 5% milk-powder solution for 1 h at room temperature under slight agitation. […] The ChemiDoc XRS+ System (Catalog# 1708265 , Bio-Rad) was used for detection and Image Lab Software 6.1 (Bio-Rad) for quantification. […]
In vitro inhibitory activities against HDAC1, 2 , and 6 were measured using a previously published protocol.[3] In vitro inhibitory activities against HDAC4 were measured using a previously published protocol with slight modifications. […]
On the technique in general: A western blot detects proteins with antibodies after separation by electrophoresis.

T1 sequence (Q13547 whole entry): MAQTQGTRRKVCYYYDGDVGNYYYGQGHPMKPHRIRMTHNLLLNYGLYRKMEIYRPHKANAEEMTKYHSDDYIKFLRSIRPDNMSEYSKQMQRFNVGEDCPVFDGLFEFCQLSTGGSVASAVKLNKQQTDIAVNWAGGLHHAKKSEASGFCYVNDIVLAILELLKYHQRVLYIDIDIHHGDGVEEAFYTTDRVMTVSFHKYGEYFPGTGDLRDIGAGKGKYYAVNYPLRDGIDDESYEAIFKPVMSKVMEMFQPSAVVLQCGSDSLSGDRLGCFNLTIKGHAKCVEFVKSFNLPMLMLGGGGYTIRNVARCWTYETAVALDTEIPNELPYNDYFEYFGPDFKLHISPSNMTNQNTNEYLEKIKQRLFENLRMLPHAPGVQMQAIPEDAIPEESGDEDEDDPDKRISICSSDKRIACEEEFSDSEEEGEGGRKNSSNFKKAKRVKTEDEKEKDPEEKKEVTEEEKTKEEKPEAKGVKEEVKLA

As a reminder, the IC50 is the point on the concentration scale where inhibition reaches its midpoint. A higher IC50 goes with weaker potency. The term Dmax denotes the largest share of the target that was removed. For `O=C(CCCCCCNC(=O)c1ccc(NC(=O)CCCCCCCCCCCN(C(=O)CCl)C(C(=O)NCc2ccccc2)c2ccc(Cl)c(Cl)c2)cc1)NO` (stereo not shown) [Compound 1j], half-maximal inhibition against HDAC1 [1] (IC50) was put at 1030 ± 40 nM. Further, the Dmax at 10 µM at HDAC1 [2] came to 90%.

On HDAC1 [1], `O=C(CCCCCCNC(=O)c1ccc(N(C(=O)CCl)C(C(=O)NCc2ccccc2)c2ccc(Cl)c(Cl)c2)cc1)NO` (stereo not shown) [Compound 2] registered a half-maximal inhibitory concentration (IC50) of 159 ± 44 nM. On HDAC1 [2], the greatest degradation seen (Dmax) at 10 µM came out at 74%.
